Data reported in patent US20060084697A1, “Pi3k antagonists as radiosensitizers” (priority 2002, published 2006).

Tests used:
HUVEC cells [1] = assay: Apoptotic nuclei in HUVEC, H&E staining; assay type: cell-based, human; settings: wortmannin 4 nM or LY294002 2 μM, 24 hours
Description: To determine whether PI3K antagonists enhance the activities of intrinsic cell death mechanisms induced by irradiation, apoptosis in HUVEC cells was studied following PI3K inhibition. HUVEC cells were treated with wortmannin (4 nM) or with LY294002 (2 μM) as described in Example 2. Cells were treated 30 minutes later with 3 Gy of ionizing radiation. Cultures were stained 24 hours later with hematoxylin and eosin (H&E) to reveal apoptotic nuclei. Stained cells were then examined by light microscopy. For each treatment group, four high power fields (40× objective) were examined, and both the number of cells with apoptotic nuclei and the total number of cells were determined. From these numbers, the percentage of apoptotic cells for each group was calculated.

GL261 tumors = assay: Tumor volume assessment, growth delay, GL261; assay type: in vivo, C57BL/6 mice
Description: GL261 tumors were generated by subcutaneous injection of 10^6 cells into the right thighs of C57BL/6 mice as described in Example 6. […] An equal number of large and intermediate size tumors were present in each group. GL261 tumor-bearing mice were treated with 24 Gy ionizing radiation administered in 8 fractionated doses over 10 days. LY294002 was administered at 3 mg/kg by intraperitoneal injection 15 minutes prior to irradiation on days 1, 3, 5, and 7 of radiation therapy. Control mice received identical doses and schedules of either LY294002 alone or radiation alone. Twice each week, tumor volumes were measured using skin calipers as previously described (Grugel et al., 1995; […] et al., 1998; Staba et al., 1998). Briefly, tumor volumes were calculated using the formula: a×b×c/2, where a=maximal width dimension, b=maximal length dimension, and c=maximal depth dimension, which was derived from the formula for calculating the volume of an ellipsoid (πd^3/6). Data were calculated as the percent of original (day 0) tumor volume and graphed as fractional tumor volume plus or minus one standard deviation for each treatment group. Growth delay was defined as the number of days required for tumors to reach a volume of 1 cm^3. Untreated control tumors reached 1 cm^3 at 7 days.

GL261 glioma tumors = assay: Power Doppler sonography of tumor blood flow, GL261 hind limb tumors; assay type: in vivo, C57BL/6J mice
Source text: Power Doppler sonography was used to study the response of tumor blood vessels to ionizing radiation. This method utilizes amplitude to measure blood flow in microvasculature. Tumors were imaged with a 10-5 MHz ENTOS® linear probe (Advanced Technology Laboratories, Inc., Bothell, Wash., United States of America) attached to an HDI® 5000 diagnostic ultrasound system (Advanced Technology Laboratories, Inc.). Power Doppler sonography images were obtained with the power gain set to 82%. Care was taken to minimize motion artifact. A 20-frame cineloop sweep of the entire tumor was obtained with the probe perpendicular to the long axis of the lower extremity along the entire length of the tumor. The images were analyzed using HDI® software (Advanced Technology Laboratories, Inc). This software allows direct evaluation of Power Doppler cineloop raw data. Color area was recorded for the entire tumor. Five mice were included in each treatment group. Values for color area were averaged for each tumor set and treated groups were compared to controls using the unpaired student t-test. GL261 glioma tumors were implanted in the hind limb of C57BL/6J mice as described in […] et al., 1998. […] Power Doppler analysis of tumor blood flow was measured on day 0, day 3, and day 7 after radiation treatment. […]

[2] = tested on: GL261 tumor blood vessels; assay: Tumor vascular window model, vascular length density, GL261; assay type: in vivo, mouse
Description: Penicillin/streptomycin solution (200 μl; available from GIBCO™ Invitrogen Corporation of Carlsbad, Calif., United States of America) was injected into the hind limb of the mouse prior to preparation of the window chamber. The dorsal skin fold window chamber (Leunig et al., 1992) was prepared using a 3-gram plastic frame, which was applied to the skin of a test animal and remained attached for the duration of the study. To prepare a test animal for application of the plastic frame, the dorsal midline was found along the animal's back, and a clip was placed to hold the skin in position. […] Scanned slides were analyzed using IMAGE-PRO® software (Media Cybernetics, Silver Spring, Md., United States of America) as described below. […] Tumor blood vessels were quantified using IMAGE-PRO® software, which quantified the vascular length density of blood vessel within the microscopic field. The mean vascular length density and the standard error of the mean were calculated for each treatment group. The mean and 95% confidence intervals of vascular length density for each treatment group were calculated and variance was analyzed by the General Linear Models and Bonferroni t test. […] The mean vascular length densities of treatment group were determined at 0 hours, which was the time at which the radiation treatments were commenced. […]

HUVEC cells [3] = assay: Clonogenic survival analysis of HUVEC; assay type: cell-based, human
Description: The ability of PI3K antagonist to suppress the clonogenic potential of HUVEC cells treated with radiation was assayed by clonogenic survival analysis. The ability of HUVEC cells treated with LY294002 30 minutes prior to irradiation to form colonies was compared to that of HUVEC cells treated with either radiation or LY294002 alone, and also to that of untreated HUVEC cells. […] Briefly, groups of three HUVEC culture plates were treated at each of four radiation dose levels: 2, 4, 6, and 8 Gy, either with or without prior treatment with PI3K antagonists as described in Example 2. After treatment with radiation and/or antagonists, cells were trypsinized, counted by hemocytometer, and subcultured into fresh medium. After 14 days, the cells were fixed with cold methanol and stained with 1% methylene blue. Colonies with greater than 50 cells were counted and the surviving fraction was determined.
To determine whether broad spectrum RTK inhibition enhances the cytotoxic effects of radiation on vascular endothelium, SU11248 was added 30 minutes prior to irradiation. HUVECs were treated with vehicle control, and either 100 nM SU11248 orvehicle combined with 6 Gy.

Question: What does the source list for `O=c1cc(N2CCOCC2)oc2c(-c3ccccc3)cccc12` [LY294002, 2-(4-Morpholinyl)-8-phenyl-4H-1-benzopyran-4-one]?
Answer: apoptotic nuclei, % of cells (HUVEC cells [1]; HUVEC pretreated 30 minutes before 3 Gy): 16%; apoptotic cells (HUVEC cells [1]; unirradiated HUVEC): 2%; growth delay: days for tumors to reach 1 cm^3 (GL261 tumors; 3 mg/kg i.p. 15 minutes prior to irradiation on days 1, 3, 5, 7, 24 Gy in 8 fractions): > 15 days; growth delay: days for tumors to reach 1 cm^3 (GL261 tumors; 3 mg/kg i.p. on days 1, 3, 5, 7, alone, untreated 7 days): 9 days; tumor blood flow (GL261 glioma tumors; LY294002 alone): unchanged; tumor blood flow (GL261 glioma tumors; LY294002 prior to 3 Gy irradiation): obliterated; mean vascular length density at 96 hours, % of 0 hour ([2]; 3 mg/Kg intraperitoneally 15 minutes prior to 3 Gy): 5%; mean vascular length density at 96 hours, % of 0 hour ([2]; 3 mg/Kg intraperitoneally, no radiation, p=0.41): 85%; radiation-induced cytotoxicity compared to radiation alone (HUVEC cells [3]; HUVEC treated 30 minutes prior to 2, 4, 6, 8 Gy, p<0.05): significantly enhanced; plating efficiency, % of untreated control cells (HUVEC cells [3]; unirradiated HUVEC treated for 30 minutes): 70%
